Structures can show the parent of a compound that is named as a salt. Where two headings read alike, the source gives them in different places.
What was measured:
T. cruzi CA-I/72 = assay: Secondary screening (dose-response assay); format: cell-based, Trypanosoma cruzi
Procedure: (§1) T. cruzi CA-I/72 trypomastigotes were obtained from C2C12 infected-culture supernatants after 4–7 days of infection. Cultures were maintained at 37°C with 5% CO2. […] Compounds were added at 10 mM in 50 nl per well using a Biomek FX (Beckman Coulter) for a final 10 μM concentration in 50 μl total volume, and 2,500 parasites were added in 10 μl per well. The plate was incubated for 72 hours at 37°C with 5% CO2. After the incubation, the plate was fixed with the addition of 50 μl of 8% paraformaldehyde solution, followed by two successive washing steps using PBS. Finally, a staining solution containing 0.5 μg/ml of 4',6-diamidino-2-phenylindole (DAPI) was added to each well of the plate and incubated for at least 4 hours prior to reading. Images were acquired by an IN Cell Analyzer 2000 (GE Healthcare) and analyzed by IN Cell Analyzer Developer 1.6 software. […] Numbers of host cells and intracellular amastigotes were determined based on host cell and parasite nucleus quantification, providing a measure of growth inhibition during the first 72 h of post-infection treatment compared to untreated controls. […] The host cell viability was assessed based on the total number of cells divided by the average number of cells from untreated controls (0.1% DMSO), being <0.5 considered a cytotoxic compound. This assay was performed in duplicate.
The hit selection criteria: >50% activity at 10 μM and >0.5 host cell viability in the primary screening. To determine the potency of the hit compounds, we performed a dose-response assay. EC50 values of compounds were determined applying the same assay used in the primary screening. […] Then, 50 nl of each sample were diluted in 50 μl media (DMEM H-21) and added to the experimental plate followed by incubation at 37°C with 5% CO2 for 72 h.

[1] = tested on: transgenic T.cruzi Brazil luc strain; assay: 4-day mouse model of infection, luciferase readout; format: in vivo, Trypanosoma cruzi; conditions: for Chagas mouse model (4 days treatment, luciferase): In vivo efficacy at 50 mg/kg bid (IP): Balb/c mice, 50 mg/kg b.i.d. IP, read at day 7 post-infection, benznidazole = 100%, vehicle = 0%
Source text: To assess in vivo efficacy of test compounds, a 4-day mouse model of infection by transgenic T.cruzi Brazil luc strain expressing firefly luciferase was used as previously described. Six-week-old female Balb/c mice (average weight 20g) were obtained from Simonsen Labs (Gilroy, CA). All animal protocols were approved and carried out in accordance with the guidelines established by the Institutional Animal Care and Use Committee from UCSD (Protocol S14187). Mice were housed at a maximum of 5 per cage and kept in a specific-pathogen-free (SPF) room at 20 to 24°C under a 12-h light/12-h dark cycle and provided with sterilized water and chow ad libitum. To infect the mice, trypomastigotes of T. cruzi Brazil luc strain were used. The parasites were harvested from culture supernatant 7 days after the infection of C2C12 myocytes in T.75 culture flasks using DMEM media supplemented with 5% FBS. The harvested parasites were counted and the density was adjusted for 10^6 parasites per milliliter of DMEM media without FBS. For the mouse infection, 100 ul of the parasite solution was injected intraperitoneally (10^5 trypomastigotes) per mouse. Starting on day 3 the infected mice were treated with test compounds at 50 mg/kg administered in 20% Kolliphor, IP, b.i.d., for four consecutive days. Two control groups included untreated mice, which received a vehicle (20% Kolliphor HS 15, a.k.a. Solutol), and the positive control groups, which received 50 mg/kg benznidazole, IP, twice a day (b.i.d). At day 7 post-infection, the luminescent signal from infected mice was read upon injection of D-luciferin. The absolute numbers of measured photons/s/cm^2 were averaged between all five mice in each group. The average photons/s/cm^2 from the group treated with benznidazole was normalized as 100% efficacy and the average photons/s/cm^2 from the group treated with vehicle only was normalized as 0% efficacy. Using a linear correlation, the average photons/s/cm^2 of each compound was normalized in the same efficacy scale as the controls.

[2] = molecular target: T. cruzi Tulahuen genetically modified to express Beta-galactosidase; conditions: cited from earlier work; for EC50: Broad dataset, read-out: EC50 in the Broad dose response dataset
T. cruzi = tested on: T. cruzi; set-up: method as in PMID 21912715; conditions: retest of Broad HTS hits in one study; cited from earlier work
Host cell cytotoxicity = format: cell-based; conditions: mouse; C2C12 host cells
Procedure: as §1

[3] = Trypanosoma cruzi, C2C12, 72 h, intracellular T. cruzi in C2C12 cells, 72 h, read-out: EC50
[4] = Trypanosoma cruzi, intracellular T. cruzi in C2C12 cells, 72 h, read-out: EC90
[5] = intracellular T. cruzi in C2C12 cells, 72 h, read-out: EC50

COc1ccc(CCN(C)CCCC(C#N)(c2ccc(OC)c(OC)c2)C(C)C)cc1OC (racemic) [SC-0005695, (±)-Verapamil hydrochloride]
EC90 (T. cruzi CA-I/72; Trypanosoma cruzi, C2C12, 72 h): 143 nM
EC50 (T. cruzi CA-I/72; intracellular T. cruzi in C2C12 cells, 72 h, listed as (±)-Verapamil hydrochloride): 38.3 nM
EC50 (T. cruzi CA-I/72; intracellular T. cruzi in C2C12 cells, 72 h, listed as verapamil): < 1000 nM
Chagas mouse model (4 days treatment, luciferase): In vivo efficacy at 50 mg/kg bid (IP) [1]: 55.1%
EC50 [2]: < 100 nM
IC50 (T. cruzi): > 50 µM

O=C(Cn1ccnc1[N+](=O)[O-])NCc1ccccc1 [Benznidazole]
Chagas mouse model (4 days treatment, luciferase): In vivo efficacy at 50 mg/kg bid (IP) [1]: 100%

COc1ccc2cc1Oc1ccc(cc1)C[C@H]1c3cc(c(OC)cc3CCN1C)Oc1c(OC)c(OC)cc3c1[C@H](C2)N(C)CC3 [SC-0011496, Tetrandrine]
EC50 (T. cruzi CA-I/72; [3]): < 1000 nM
EC90 (T. cruzi CA-I/72; [4]): 1570 nM
EC50 (T. cruzi CA-I/72; [5]): 508 nM
CC50 at 72 h (Host cell cytotoxicity): 1300 nM
Chagas mouse model (4 days treatment, luciferase): In vivo efficacy at 50 mg/kg bid (IP) [1]: 43.6%
Statistical significance of in vivo efficacy ([1]; Student t test vs vehicle at day 7, p≤ 0.05): does not appear to have statistically significant efficacy in vivo
Result in the larger Broad HTS screening dataset to identify inhibitors of replication [2]: inactive

O=C1OCCN1/N=C/c1ccc([N+](=O)[O-])o1 [SC-0011742, Furazolidone]
Chagas mouse model (4 days treatment, luciferase): In vivo efficacy at 50 mg/kg bid (IP) ([1]; listed as Furazolidone, 50 mg/kg): 100.5%
Chagas mouse model (4 days treatment, luciferase): In vivo efficacy at 50 mg/kg bid (IP) ([1]; listed as furazolidone, 50 mg/kg): 100%

NC(=O)N/N=C/c1ccc([N+](=O)[O-])o1 [SC-0011754, Nitrofural]
EC50 (T. cruzi CA-I/72; [3]): < 1000 nM
EC90 (T. cruzi CA-I/72; [4]): 6980 nM
EC50 (T. cruzi CA-I/72; [5]): 775 nM
CC50 at 72 h (Host cell cytotoxicity): > 10000 nM

COc1ccc2nc3cc(Cl)ccc3c(Nc3cc(CN4CCCC4)c(O)c(CN4CCCC4)c3)c2n1 [SC-0011799, Pyronaridine]
EC90 (T. cruzi CA-I/72; [4]): 665 nM
EC50 (T. cruzi CA-I/72; intracellular T. cruzi in C2C12 cells, 72 h, listed as Pyronaridine, read-out: EC50): 225 nM
EC50 (T. cruzi CA-I/72; intracellular T. cruzi in C2C12 cells, 72 h, listed as pyronaridine, read-out: EC50): < 1000 nM
CC50 at 72 h (Host cell cytotoxicity): 3000 nM
Chagas mouse model (4 days treatment, luciferase): In vivo efficacy at 50 mg/kg bid (IP) [1]: 85.2%
EC50 [2]: < 587 nM

O=C(NCO)N/N=C/c1ccc([N+](=O)[O-])o1 [hydroxymethylnitrofurazone, Hydroxymethylnitrofurazone]
Chagas mouse model (4 days treatment, luciferase): In vivo efficacy at 50 mg/kg bid (IP) ([1]; 50 mg/kg): 78.5%

Source: PMC4482694, “Machine Learning Models and Pathway Genome Data Base for Trypanosoma cruzi Drug Discovery” (PLoS Neglected Tropical Diseases, 2015)
